Measurements: patent publication EP3545756A1, “REGENERATION OF PLANTS IN THE PRESENCE OF INHIBITORS OF THE HISTONE METHYLTRANSFERASE EZH2” (KWS SAAT SE & Co. KGaA, priority 2018, dated 2019)
Structures can show the parent of a compound that is named as a salt.

Tests used:
sugar beet callus [1] = experiment: Shoot formation after particle bombardment of sugar beet callus; format: cell-based, Beta vulgaris
Method: • 1. Friable calli were produced as described above in steps 1 and 2 of Example 1. • 2. An osmotic treatment was carried out by incubating the harvested calli in a medium containing MS salts, 30 g/l sucrose,1 mg/l GA3,1 mg/l Thidiazuron (TDZ),10 g/l agar, pH 6.0, 36 g/l mannitol and 36 g/l sorbitol for 2.5 h at room temperature in the dark. • 3. Preparation and DNA coating of the gold particles was done by standard procedures, as describe in the PDS-1000/He instruction manual. The plasmid pZFNnptll with the red fluorescent marker, tdT, (see Figure 2) was coprecipitated with gold particles. • 4. Calli were bombarded with a PDS-1000/He unit (Bio-Rad), using 30 ng gold particles coated with 500 ng DNA per shot. The rupture pressure was 450 psi and the target tissue was placed at 9 cm distance from the stopping screen. • 5. After bombardment, aliquots of calli tissue were incubated in medium containing MS salts, 30 g/l sucrose, 1 mg/l GA3 and 1 mg/l TDZ, with and without 0.4 mg/l DZNep, in light/dark (16h/8h), at 24 °C for 10 days on separate plates. As a control for standard regeneration, non-bombarded aliquots of calli were treated in the osmotic medium and directly transferred to above medium without DZNep. Shoot number was scored by using a standard binocular.

sugar beet callus [2] = experiment: Shoot formation from sugar beet callus in DZNep-supplemented medium; format: cell-based, Beta vulgaris; details: 8 days
Text: The applied method is based on the publication by Kischenko et al. (2005. Production of transgenetic sugarbeet (Beta vulgaris L.) plants resistant to phosphinothricin. Cell biology international, 29(1), 15-19.). This method relies on the induction of friable callus derived from cotyledons and hypocotyl explants. Method is genotype dependent.
• 1. Micropropagated shoots of the genotype 9BS0448 were used as starting material. Shoots were multiplied in MS salts supplemented with 30 g/l sucrose and 0.25 mg/l benzyladenine (BAP). • 2. To induce friable callus, leaf explants were isolated from micropropagated shoots and incubated in medium containing MS salts including 15 g/l sucrose and 2 mg/l BAP at 28°C in the dark for 7 weeks.
• 3. Friable calli of step 2 were harvested and placed in medium containing MS salts, 30 g/l sucrose, 1 mg/l GA3 and 1 mg/l TDZ, and transferred to separate dishes as control. Similar amount of friable calli were harvested and placed in the same medium supplemented with 0.4 mg/l DZNep. • 4. The dishes were incubated under the light/dark regime (16 h/8 h) at 24°C for 8 days. • 5. Developing shoots were counted under a stereomicroscope, in order to estimate the regeneration capacity.

Sugar beet plants = experiment: Plant growth after regeneration from shoots induced with temporary DZNep treatment; format: in vivo, Beta vulgaris; details: shoots from DZNep plates transferred into normal growth medium without DZNep, compared with shoots from control plates
Text: Beside the increased capability for shoot formation the inventors observed that shoots harvested from the control plates and from the plates supplied with DZNep and subsequently transferred into the container with normal growth medium (without DZNep), developed to plant with different biomass and vitality. […] Thus, the DZNep treatment affects also positively the plant growth after regeneration.

Nc1nccc2c1ncn2[C@@H]1C=C(CO)[C@@H](O)[C@H]1O [DZNep, 3-Deazaneplanocin A hydrochloride]
increase of shoots per plate compared to the bombarded control (sugar beet callus [1]; bombarded calli with 0.4 mg/l DZNep versus bombarded control with standard medium): 207% | increase of shoots per plate compared to the non-bombarded control (sugar beet callus [1]; bombarded calli with 0.4 mg/l DZNep versus non-bombarded control without DZNep): 108% | mean value of shoots per plate (sugar beet callus [1]; bombarded calli, 0.4 mg/l DZNep in medium, 10 days, 24 °C, non-bombarded control 4, bombarded control 2.7): 8.3 shoots per plate | mean value of shoots per 1 g callus tissue (sugar beet callus [2]; 0.4 mg/l DZNep in shoot induction medium, genotype 9BS0448, 24°C, light/dark 16 h/8 h, control 13.9): 27.1 shoots per 1 g callus tissue | increase of shoots per 1 g callus tissue compared to control (sugar beet callus [2]; 0.4 mg/l DZNep versus control without DZNep): 95% | plant biomass and vitality after regeneration (Sugar beet plants): significantly bigger and more vital
